Measured values published in the supplement of paper PMC8967900.

Assays:
Assay in all cases: selective drug sensitivity score (sDSS, relative to normal bone marrow) (sDSS (score)); higher = more potent and effective on the cell line relative to normal bone marrow cells
Conditions in all cases: 72 h
SEM cells = test system: SEM cells
NALL-1 = test system: NALL-1
697 = test system: 697
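Also: ALL cell lines in 384-well plates, five doses spanning 10,000-fold, each plate scaled between vehicle and 100 µmol/L benzalkonium chloride controls, sDSS an adapted area-under-curve metric.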

Compound | selective drug sensitivity score (SEM cells) | selective drug sensitivity score (NALL-1) | selective drug sensitivity score 697
Cn1nccc1Nc1nccc(-c2ccn([C@H](CO)c3ccc(Cl)c(F)c3)c(=O)c2)n1 [Ravoxertinib] (top concentration 10000 nM) | 0.7 | 10 | 1.5
C/C=C1\NC(=O)[C@H]2CSSCC/C=C/[C@H](CC(=O)N[C@H](C(C)C)C(=O)N2)OC(=O)[C@H](C(C)C)NC1=O [Romidepsin] (top concentration 1000 nM) | 3.96 | 2.06 | 3.16
CNCc1ccc(-c2[nH]c3cc(F)cc4c3c2CCNC4=O)cc1 [Rucaparib] (top concentration 10000 nM) | 2.72 | -0.58 | 6.42
CC(C)(C)c1cnc(CSc2cnc(NC(=O)C3CCNCC3)s2)o1 [SNS-032] (top concentration 10000 nM) | -3.24 | -4.94 | -2.64
Cc1c(C(=O)Nc2ccc(N3C[C@@H](C)O[C@@H](C)C3)nc2)cccc1-c1ccc(OC(F)(F)F)cc1 [Sonidegib] (top concentration 10000 nM) | -3.92 | 7.58 | 1.28
CNC(=O)c1cc(Oc2ccc(NC(=O)Nc3ccc(Cl)c(C(F)(F)F)c3)cc2)ccn1 [Sorafenib] (top concentration 1000 nM) | 15.1 | 0 | 1.7
CN1CCN(c2nc(C3=C(c4c[nH]c5ccccc45)C(=O)NC3=O)c3ccccc3n2)CC1 [Sotrastaurin] (top concentration 10000 nM) | 6.7 | 1.9 | 8
Cc1cc(C(C)Nc2ccccc2)c2nc(N3CCOCC3)cc(=O)n2c1 (stereo not drawn) [TGX-221] (top concentration 10000 nM) | 5.46 | -0.44 | 0.16
Cc1nc(-c2cn3c(n2)-c2ccc(-c4cnn(C(C)(C)C(N)=O)c4)cc2OCC3)n(C(C)C)n1 [Taselisib] (top concentration 1000 nM) | 5.2 | -1.7 | 3.9
Cn1cncc1[C@@](N)(c1ccc(Cl)cc1)c1ccc2c(c1)c(-c1cccc(Cl)c1)cc(=O)n2C [Tipifarnib] (top concentration 10000 nM) | 18.6 | 1.4 | 6.9
CN(C)CCOc1ccc(/C(=C(/CCCl)c2ccccc2)c2ccccc2)cc1 [Toremifene] (top concentration 10000 nM) | 0.48 | 8.98 | 0.28
CC(=O)Nc1cccc(-n2c(=O)n(C3CC3)c(=O)c3c(Nc4ccc(I)cc4F)n(C)c(=O)c(C)c32)c1 [Trametinib] (top concentration 250 nM) | -8.04 | -4.84 | -2.64
O=C(CCCCCCC(=O)Nc1ccc([C@H]2O[C@@H](CSc3nc(-c4ccccc4)c(-c4ccccc4)o3)C[C@@H](c3ccc(CO)cc3)O2)cc1)NO [Tubacin] (top concentration 10000 nM) | 9.44 | 7.54 | 8.54
CN1CCc2c(c3ccccc3n2Cc2ccc(C(=O)NO)cc2)C1 [Tubastatin_A] (top concentration 10000 nM) | 4.76 | 8.76 | 4.46
C[C@]1(c2nc3c(C(N)=O)cccc3[nH]2)CCCN1 [Veliparib] (top concentration 10000 nM) | -4.18 | -4.18 | -1.08
CS(=O)(=O)c1ccc(C(=O)Nc2ccc(Cl)c(-c3ccccn3)c2)c(Cl)c1 [Vismodegib] (top concentration 10000 nM) | 2.06 | 1.06 | -0.84
